Laboratory results reported in patent US9340577B2, “HLA binding motifs and peptides and their uses” (priority 1992, dated 2016).
Where two headings read alike, the source gives them in different places. No end group written: not given here.

What was measured:
Experiment in all cases: biochemical
DRB1*0901 = DRB1*0901 (Homo sapiens, UniProt P01903+P01911, A100R/A103E/D57H/D86V/F55Y/F60I/F76Y/I96F/K127E/L162R/M171V/P40D/Q125H/Q99R/R33Q/R42F/S133A/S66N/T210M/V115G/W38K/Y107V/Y59G/Y89S); format: binding
DR1 (DRB1*0101) = DR1 (DRB1*0101) (Homo sapiens, UniProt P01903+P01911, A100R/D57E/F55L/F60I/F76Y/I96L/L162R/M171V/P40L/Q125E/R42F/V115G/Y59C); format: binding
DR4w4 (DRB1*0401) = DR4w4 (DRB1*0401) (Homo sapiens, UniProt P01903+P01911, A100K/A169T/F76Y/I96L/K127E/L162R/M171V/N62H/P40V/Q125Y/R42H/S133A/S149N/S66Y/V115G/V209L/W38E); format: binding
DR7 (DRB1*0701) = DR7 (DRB1*0701) (Homo sapiens, UniProt P01903+P01911, A100R/A102G/A103Q/D57E/D86V/E43K/F76Y/K127E/L162R/M171V/P40G/Q125H/Q99D/R33Q/R42Y/R54Q/S133A/S66F/T210M/V115G/Y107V/Y59L/Y89S); format: binding
DRB1*0802 = DRB1*0802 (Homo sapiens, UniProt P01903+P01911, A100R/A103L/A169T/F76Y/H45Y/I96F/K41T/L162R/M171V/P40S/Q125H/Q178H/Q39Y/Q99D/R218S/R42G/S66Y/V115G/W38E); format: binding
DRB1*1302 = DRB1*1302 (Homo sapiens, UniProt P01903+P01911, A100E/A169T/K41T/L162R/M171V/P40S/Q125H/Q178H/Q39Y/Q99D/R42S/S66N/T262R/V115G/W38E/Y61H); format: binding
Chain of DRB1*1302 (P01903 26-254 limits assumed, other chains not shown): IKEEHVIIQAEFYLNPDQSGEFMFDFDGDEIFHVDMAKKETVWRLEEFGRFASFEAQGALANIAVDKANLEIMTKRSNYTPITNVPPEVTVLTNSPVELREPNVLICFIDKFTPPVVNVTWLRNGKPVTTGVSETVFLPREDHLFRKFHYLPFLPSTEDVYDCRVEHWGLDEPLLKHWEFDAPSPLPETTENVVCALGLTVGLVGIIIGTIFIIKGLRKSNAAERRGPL

DRB1*1501 = DRB1*1501 (Homo sapiens, UniProt P01903+P01911); format: binding
DRB1*1101 = DRB1*1101 (Homo sapiens, UniProt P01903+P01911, A100R/A169T/A87E/I96F/K41T/L162R/M171V/P40S/Q125H/Q178H/Q39Y/Q99D/R42S/S66Y/T262R/V115G/W38E)
Chain of DRB1*1101 (P01903 26-254 limits assumed, other chains not shown): as above

DRB5*0101 = DRB5*0101 (Homo sapiens, UniProt P01903+Q30154)
DRB4*0101 = DRB4*0101 (Homo sapiens, UniProt P01903+P13762, G164S); format: binding
A*6802 = A*6802 (Homo sapiens, UniProt P04439, A269V/D140Y/D185E/E176V/E277Q/E87N/F33Y/G231S/I121R/I166T/I218V/L180W/L300P/L318F/N151K/P208A/P217A/Q86R/R138H/R169H/S129P/T345S/V36M); format: binding

CYSLYGTTLEQQYNK [Peptide 85.0004]
IC50 (DRB1*0901): 26 µM

GKSYFGMSLIHFLKG [Peptide 89.0146]
IC50 (DR1 (DRB1*0101)): > 20 µM | IC50 (DR4w4 (DRB1*0401)): 0.561 µM | IC50 (DR7 (DRB1*0701)): > 20 µM | IC50 (DRB1*0802): > 20 µM | IC50 (DRB1*0901): > 20 µM | IC50 (DRB1*1302): > 20 µM | IC50 (DRB1*1501): > 20 µM | IC50 (DRB1*1101; Binding affinity DRB1 *1101): > 20 µM | IC50 (DRB5*0101; Binding affinity DRB5 *0101): > 20 µM

839.03 (AAAATKAAAA; also: non-natural residues (14), (35)) [Peptide 839.03]
IC50 (DR4w4 (DRB1*0401); read-out: DRB1*0401): > 0.5 µM

SEVYDFAFADLTVVY [Peptide 85.0024]
IC50 (DRB1*1302): > 20 µM | IC50 (DRB1*1101; Binding affinity DRB1 *1101): > 20 µM

787.35 (AAIGFFFFKKGIA; also: non-natural residue (43)) [Peptide 787.35]
IC50 (DR4w4 (DRB1*0401); read-out: DRB1*0401): 0.258 µM

CC[C@H](C)[C@H](NC(=O)[C@@H](N)Cc1c[nH]c2ccccc12)C(=O)N[C@H](C(=O)N[C@@H](CCC(N)=O)C(=O)N[C@@H](CS)C(=O)N[C@@H](Cc1ccccc1)C(=O)N[C@@H](CC(C)C)C(=O)N1CCC[C@H]1C(=O)N[C@H](C(=O)N[C@@H](Cc1ccccc1)C(=O)N[C@@H](CC(C)C)C(=O)N[C@@H](C)C(=O)N[C@@H](CCC(N)=O)C(=O)N1CCC[C@H]1C(=O)N1CCC[C@H]1C(=O)N[C@@H](CO)C(=O)NCC(=O)N[C@@H](CCC(N)=O)C(=O)N[C@@H](CCCNC(=N)N)C(=O)N[C@@H](CCCNC(=N)N)C(=O)O)C(C)C)[C@@H](C)O [Peptide F189.02]
IC50 (DRB1*1302): 23.6 µM | IC50 (DRB1*1501): 0.726 µM | IC50 (DRB4*0101): 0.688 µM

RTLHDLCQA [Peptide 1481.46]
IC50 (A*6802): > 20 µM

RLTVSKLMSQLLNIP [Peptide 89.0100]
IC50 (DR7 (DRB1*0701)): 4.99 µM | IC50 (DRB1*0802): > 20 µM | IC50 (DRB1*0901): > 20 µM | IC50 (DRB1*1302): 0.0073 µM | IC50 (DRB1*1501): > 20 µM | IC50 (DRB4*0101): 4.82 µM | IC50 (DRB1*1101; Binding affinity DRB1 *1101): > 20 µM | IC50 (DRB5*0101; Binding affinity DRB5 *0101): > 20 µM

TLHDLCQAL [Peptide 1481.47]
IC50 (A*6802): > 20 µM

CC[C@H](C)[C@H](NC(=O)[C@H](CCCCN)NC(=O)[C@H](CC(N)=O)NC(=O)[C@@H](NC(=O)[C@@H](NC(=O)[C@H](CC(C)C)NC(=O)[C@@H](NC(=O)[C@H](CO)NC(=O)[C@H](CC(C)C)NC(=O)[C@H](C)N)[C@@H](C)O)C(C)C)C(C)C)C(=O)N[C@@H](CCCNC(=N)N)C(=O)NCC(=O)N[C@H](C(=O)N[C@@H](Cc1ccccc1)C(=O)N[C@@H](CCCCN)C(=O)O)[C@@H](C)O [Peptide F196.09]
IC50 (DRB1*1302): 0.0076 µM | IC50 (DRB1*1501): 0.16 µM | IC50 (DRB4*0101): 0.214 µM | IC50 (DRB1*1101): 0.032 µM | IC50 (DRB5*0101): 0.038 µM

IIHLKGDKNSLKCLR [90,0218]
IC50 (DR7 (DRB1*0701)): > 20 µM | IC50 (DRB1*0802): 5.03 µM | IC50 (DRB1*0901): > 20 µM | IC50 (DRB1*1101; […]): > 20 µM

LQLPPLERLTV [Peptide 73.0158]
IC50 (A*6802): > 20 µM

ACSWGMVMLMLVRFK [Peptide 89.0043]
IC50 (DR7 (DRB1*0701)): > 20 µM | IC50 (DRB1*0802): 2.9 µM | IC50 (DRB1*0901): 10.5 µM | IC50 (DRB4*0101): 0.467 µM | IC50 (DRB1*1101; Binding affinity DRB1 *1101): 0.679 µM | IC50 (DRB5*0101; Binding affinity DRB5 *0101): 5.63 µM

TNCMLIQPPKLRSTA [Peptide 89.0046]
IC50 (DR7 (DRB1*0701)): 1.12 µM | IC50 (DRB1*0901): > 20 µM | IC50 (DRB1*1302): 5.1 µM | IC50 (DRB1*1501): 5.12 µM | IC50 (DRB4*0101): 0.479 µM | IC50 (DRB1*1101; Binding affinity DRB1 *1101): 1.09 µM

LHLLSNDMCARAYSE [Peptide 68.0140]
IC50 (DR7 (DRB1*0701)): > 20 µM | IC50 (DRB1*0802): > 20 µM | IC50 (DRB1*0901): > 20 µM | IC50 (DRB1*1501): > 20 µM | IC50 (DRB1*1101; Binding affinity DRB1 *1101): > 20 µM | IC50 (DRB5*0101; Binding affinity DRB5 *0101): > 20 µM

VTAKELKFV [Peptide 1418.24]
IC50 (A*6802): > 20 µM

QYIKANSSFIGITE
IC50 (DR4w4 (DRB1*0401)): 0.013 µM

Ac-AAAKAAAAAAYAA [Peptide 702.08]
IC50 (DR4w4 (DRB1*0401)): 0.348 µM

Ac-NPDAENWNSQFEILEDAA [Peptide 725.01]
IC50 (DRB1*0802): > 25 µM
